Laboratory results reported in patent US20240252463A1, “METHODS OF TREATING FIBROTIC PATHOLOGIES” (Mayo Foundation for Medical Education and Research, priority 2018, published 2024).

Legend:
TAZ4SA = assay: Gene expression and ECM deposition in NIH-3T3 cells expressing constitutively active mutant TAZ (TAZ4SA); assay type: cell-based, mouse; details: doxycycline-induced TAZ4SA NIH-3T3
Method: FIGS. 8A-8B DHX inhibition of pro-fibrotic gene expression and matrix deposition requires inhibition of YAP/TAZ. […] TAZ4SA expression was induced with 100 ng/mL doxycycline for 72 hours prior to treatment with 10 μM or the indicated concentration of dihydrexidine. For gene expression experiments efficacy of DHX in NIH-3T3 cells was validated with by DHX (10 μM) effect on TGFβ (24 hour, 2 ng/mL) induced gene expression. N=2 for all.
Cell culture: Cells were all maintained in EMEM (ATCC) containing 10% FBS, unless otherwise noted. IMR-90 embryonic lung fibroblasts and NIH-3T3 mouse fibroblasts were purchased from ATCC. Doxycycline-inducible Tet-On NIH3T3 expressing TAZ4SA or control empty vector were described previously. Normal Human Alveolar Epithelial Cells (NHAEpCs), Normal Human Microvascular Endothelial Cells (NHMVECs), Normal Human Lung Fibroblasts (NHLFs), and Human Dermal Fibroblasts (HDFs) were purchased from Lonza and were cultured in the proprietary media per Lonza's recommendation. Human Adult Cardiac Fibroblasts (HACFs) and Hepatic Stellate Cells (HSCs) were purchased from ScienCell and were cultured in the proprietary media per ScienCell's recommendation. Hepatocytes were purchased from Samsara and were cultured in the proprietary media per Samsara's recommendation. […]

[1] = test system: bleomycin-induced pulmonary fibrosis; assay: Bleomycin Mouse Study, dihydrexidine treatment; assay type: in vivo
Method: Bleomycin Mouse Study: In the initial in vivo siRNA study (FIG. 5), adult male age-matched C57BL/6N mice at 6-8 weeks of age were purchased from the National Cancer Institute (NCI)-Frederick Mouse Repository (Frederick, MD, USA). All experiments were performed in accordance with National Institute of Health guidelines and protocols approved by the Massachusetts General Hospital Subcommittee on Research Animal Care, and maintained all mice in a specific pathogen-free (SPF) environment certified by the American Association for Accreditation of Laboratory Animal Care (AAALAC). 6-8 weeks old mice were anesthetized with ketamine and xylazine before exposure of the trachea. Lung fibrosis was induced by intratracheal injection of bleomycin (50 μl at 1.2 U/kg) or phosphate buffered saline (PBS; as control) on day 0. After 14 days Small interfering RNA (siRNA) duplexes targeting mouse Yap (L-046247-01-0005) or Taz (L-058248-01-0005) mRNA (Dharmacon) or nontargeting control siRNA were administered in vivo by intratracheal instillation at a single dose of 25 μg (each siRNA) per mouse. On day 21 Mice were sacrificed and lungs harvested for collagen determination and biochemical analyses. To obtain BAL samples for total protein concentration determination, lungs were lavaged with six 0.5-ml aliquots of PBS. BAL samples were centrifuged at 3,000 g for 20 min at 4° C. and transferred the supernatants to siliconized low-binding Eppendorf tubes (PGC Scientifics) for subsequent analysis. Total protein concentration of the BAL fluid was determined by BCA Protein Assay Kit (Pierce). In the dihydrexidine treatment studies (FIG. 4), 8 week old female C57/BL6 mice were purchased from Charles River Laboratories. Mouse lung fibrosis was induced with bleomycin (BLEO; Fresenius Kabi) delivered intratracheally (3 U/kg) to the lungs using MicroSprayer® Aerosolizer (Penn-Century). The Sham mice received sterile 0.9% saline instead using identical methods. Mice were weighed every 24 hrs, and both groups were then randomized at day 10 into DHX and Control treatment groups, matching for the degree of weight change. DHX (5 mg/kg) was administered everyday intranasally (i.n.) dissolved in surfactant (infasurf) which has previously shown to aid in spreading to pulmonary aveoli for 14 days. The control groups of mice received the equivalent vehicle dose of surfactant. Following the final DHX treatment, mice were sacrificed and the right lungs were inflated with 4% paraformaldehyde (PFA) and further incubated in 4% PFA for 24 hours prior processing for paraffin embedding. The left lobe of the lung was snap frozen in liquid nitrogen for RNA isolation and hydroxyproline assay. Experimental procedures were approved by the Mayo Clinic Institutional Animal Care and Use Committee and the animals were handled in accordance with their guidelines.
Histological Scoring: Five μm thick sections were cut from Paraffin embedded lung tissues, and the sections were stained either with hematoxylin and eosin (H&E) or with Masson's Trichrome stain kit (Abcam). All H&E-stained slides and trichrome-stained slides were reviewed in a blinded fashion by a thoracic pathologist. The severity of interstitial and peribronchiolar lung immature and mature fibrosis was estimated on a numerical scale according to Ashcroft et al. For scoring purposes, all H&E stained slides were systematically scanned at 100× magnification and successive 100× fields were scored. Scoring was based on the following scale: 0 (no fibrosis), 1 (minimal interstitial and/or peribronchiolar thickening due to fibrosis), 3 (moderate thickening without obvious architectural distortion), 5 (increased fibrosis with formation of fibrous bands and/or small masses), 7 (severe architectural distortion with large areas of fibrosis and areas of honeycomb changes), and 8 (total fibrous obliteration of the field). The predominant score for each field was recorded. The mean of all scores was calculated for each case. […]

YAP/TAZ = YAP/TAZ nuclear localization in IMR-90 and other mesenchymal cells (cardiac, dermal fibroblasts, hepatic stellate cells); assay type: cell-based, human; details: FIG. 37B
[2] = bleomycin mice, 5 mg/kg once daily i.n., day 24

Oc1cc2c(cc1O)[C@H]1c3ccccc3CN[C@@H]1CC2 (racemic) [Dihydrexidine, dihydrexidine]
profibrotic gene expression and extracellular matrix accumulation in TAZ4SA cells (TAZ4SA): had no effect on profibrotic gene expression or extracellular matrix accumulation
lung remodeling in the absence of fibrosis (body weight, histology, collagen, gene expression) ([1]; Sham DHX mice, identical time course and route): did not differ from those of control mice
weight change ([1]; bleomycin mice, 5 mg/kg once daily i.n. from Day 10): lost significantly less weight
lung histology (Ashcroft, blinded pathologist) [1, 2]: nearly completely protected from lung remodeling
staining for YAP and TAZ in the lungs [1, 2]: attenuated by DHX treatment
total collagen in the lungs (hydroxyproline) [1, 2]: nearly identical to sham treated mice
transcript levels of Acta2, Ctgf, Fn1, Col1a1, Col1a2, Yap and Taz in lung [1, 2]: significantly attenuated
YAP/TAZ nuclear localization in mesenchymal cells derived from uterine fibroids (YAP/TAZ): marginal inhibition of YAP/TAZ nuclear localization
